Test results from article PMC4109950, “Novel Small Molecule XPO1/CRM1 Inhibitors Induce Nuclear Accumulation of TP53, Phosphorylated MAPK and Apoptosis in Human Melanoma Cells” (PLoS ONE, 2014).

Legend:
FO-1 [1] = test: Apoptosis via Annexin V/PI staining, flow cytometry; format: cell-based; details: Homo sapiens, FO-1, 72 hr treatment
Method: (§1) Phosphatidyl serine exposure was assessed in tumor cells and melanocytes by flow cytometry using APC-Annexin V and propidium iodide (PI; BD Pharmingen, San Diego, CA) as previously described. Each analysis was performed utilizing at least 10,000 events. We considered the Annexin V positive cells (early apoptosis) and Annexin V/PI double positive cells (late apoptosis) cells as the apoptotic cell population. The 4-parameter logistic or Hill model was the assumed dose-response relationship for the in vitro inhibition and cell viability experiments. Nonlinear least squares regression was used to estimate the model parameters and generate 95% confidence intervals for the IC50 estimates. For in vivo experiments, tumor volumes were first log-transformed to meet test assumptions of normality and homoscedasticity. Changes in tumor volumes were analyzed using a two-sample t-test to evaluate the difference from first day of treatment to the last for A375 xenografts (day 17), and from day 1 to day 10 for CHL-1 xenografts as day 10 marks the first mouse sacrificed when 1500 mm^3 tumor volume was reached. ANOVA was used to compare the expression of XPO1 staining among samples from the melanoma tissue core array. The Wilcoxon rank-sum test was used to analyze data comparing growth inhibition and apoptosis of the five metastatic melanoma cell lines to the three melanocyte cell lines.

HEM-l [2] = test: as above; format: cell-based; details: Homo sapiens, Melanocyte, HEM-l primary melanocytes, 72 hr treatment
Method: as §1

A375 [3] = test: as above; format: cell-based; details: Homo sapiens, A-375, A375, 72 hr treatment
Method: as §1

Wm1366 [4] = test: as above; format: cell-based; details: Homo sapiens, Wm1366, 72 hr treatment
Method: as §1

Hs294T [5] = test: as above; format: cell-based; details: Homo sapiens, Hs 294T, 72 hr treatment
Method: as §1

CHL-1 [6] = test: as above; format: cell-based; details: Homo sapiens, CHL-1, 72 hr treatment
Method: as §1

A375 [7] = test: Cell cycle assay (PI, flow cytometry); format: cell-based, human; details: A375, 1 µM, 24 h or 48 hr, PI staining
Method: (§2) Cell-cycle analysis was conducted using propidium iodide (PI) following the manufacturer's protocol (BD Pharmigen). Cells were plated in 6-well plates and treated for 24 h or 48 hr with 1 µM of KPT-185. A total of 1×10^5 cells per analysis were examined by flow cytometry (FACSCalibur), and analyzed using ModFit LT 3.3.

CHL-1 [8] = test: Cell cycle assay (PI, flow cytometry); format: cell-based, human; details: CHL-1, 1 µM, 24 h or 48 hr, PI staining
Method: as §2

melanoma cell lines = test: Immunoblot analysis of PARP cleavage; format: cell-based, human; details: KPT-185 at the IC50 for apoptosis for each cell line
Method: Immunoblots were prepared as previously described and probed with antibodies specific for TP53, CDKN1A (p21), XPO1, HDM2 (MDM2), Lamin B (Santa Cruz Biotechnology, Santa Cruz, CA), pMAPK, PARP (Cell Signaling Technology), GAPDH or β-actin (Sigma). Following incubation with the appropriate horseradish peroxidase-conjugated secondary antibody, immune complexes were detected using the ECL Plus detection kit (Amersham Biosciences, Ayesbury, UK).

HEMn-MP [9] = test: Apoptosis via Annexin V/PI staining, flow cytometry; format: cell-based, human; details: HEMn-MP primary melanocytes, 72 hr, range 0–10.24 µM
Method: as §1

HEMn-DP [10] = test: as above; format: cell-based, human; details: HEMn-DP primary melanocytes, 72 hr, range 0–10.24 µM
Method: as §1

A375 [11] = test: Subcellular fractionation and immunoblot analysis; format: cell-based, human
Method: (§3) Human melanoma cell lines were seeded in 6-well plates (2×10^5) and allowed to adhere overnight. After treatment for various time points, the cells were harvested then fractionated using NE-PER Nuclear and Cytoplasmic Extraction Reagents from Thermo Scientific following the manufacturer's protocol. Nuclear and cytoplasmic fractions were validated via immunoblot analysis using Lamin B and GAPDH antibodies. Immunoblots were prepared as previously described and probed with antibodies specific for TP53, CDKN1A (p21), XPO1, HDM2 (MDM2), Lamin B (Santa Cruz Biotechnology, Santa Cruz, CA), pMAPK, PARP (Cell Signaling Technology), GAPDH or β-actin (Sigma). Following incubation with the appropriate horseradish peroxidase-conjugated secondary antibody, immune complexes were detected using the ECL Plus detection kit (Amersham Biosciences, Ayesbury, UK).

CHL-1 [12] = test: Subcellular fractionation and immunoblot analysis; format: cell-based, human
Method: as §3

HEM-l [13] = test: Cellular growth assay (MTS), 72 h; format: cell-based; details: Homo sapiens, Melanocyte, HEM-l primary melanocytes, 72 hr treatment, read-out: Growth Inhibition IC50
Method: (§4) Cells were seeded in 96-well plates (2×10^4) in triplicate and allowed to adhere overnight. Fresh media containing KPT-185, KPT-185-trans, KPT-276, or KPT-330 was added to each well at various concentrations (range = 40–10240 nM) and cells were incubated at 37°C/5% CO2 for 72 hours. Cells treated with DMSO (diluent) and untreated cells served as controls. At this time, the percentage of cell growth was evaluated using the MTS assay (CellTiter 96 AQueous Non-Radioactive Cell Proliferation Assay, Promega) and quantified by determining the optical density at 595 nm using a Bio-Rad iMark™ microplate reader. The 4-parameter logistic or Hill model was the assumed dose-response relationship for the in vitro inhibition and cell viability experiments. Nonlinear least squares regression was used to estimate the model parameters and generate 95% confidence intervals for the IC50 estimates. For in vivo experiments, tumor volumes were first log-transformed to meet test assumptions of normality and homoscedasticity. Changes in tumor volumes were analyzed using a two-sample t-test to evaluate the difference from first day of treatment to the last for A375 xenografts (day 17), and from day 1 to day 10 for CHL-1 xenografts as day 10 marks the first mouse sacrificed when 1500 mm^3 tumor volume was reached. ANOVA was used to compare the expression of XPO1 staining among samples from the melanoma tissue core array. The Wilcoxon rank-sum test was used to analyze data comparing growth inhibition and apoptosis of the five metastatic melanoma cell lines to the three melanocyte cell lines.

Wm1366 [14] = test: Cellular growth assay (MTS), 72 h; format: cell-based; details: Homo sapiens, Wm1366, 72 hr treatment, read-out: Growth Inhibition IC50
Method: as §4

Hs294T [15] = test: Cellular growth assay (MTS), 72 h; format: cell-based; details: Homo sapiens, Hs 294T, 72 hr treatment, read-out: Growth Inhibition IC50
Method: as §4

FO-1 [16] = test: Cellular growth assay (MTS), 72 h; format: cell-based, human; details: FO-1, 72 hr treatment, read-out: Growth Inhibition IC50
Method: as §4

A375 [17] = test: Cellular growth assay (MTS), 72 h; format: cell-based, human; details: A375, 72 hr treatment, read-out: Growth Inhibition IC50
Method: as §4

HEMn-MP [18] = test: Cellular growth assay (MTS), 72 h; format: cell-based, human; details: HEMn-MP primary melanocytes, highest concentration 10240 nM
Method: as §4

HEMn-DP [19] = test: Cellular growth assay (MTS), 72 h; format: cell-based, human; details: HEMn-DP primary melanocytes, highest concentration 10240 nM
Method: as §4

CHL-1 [20] = test: Cellular growth assay (MTS), 72 h; format: cell-based, human; details: Homo sapiens, CHL-1, 72 hr treatment, read-out: Growth Inhibition IC50
Method: as §4

[21] = Homo sapiens, Melanocyte, read-out: Growth Inhibition IC50

COc1cc(-c2ncn(/C=C\C(=O)OC(C)C)n2)cc(C(F)(F)F)c1 [KPT-185]
IC50 (FO-1 [1]): 297 nM | IC50 (HEM-l [2]): 3170 nM | IC50 (A375 [3]): 147 nM | IC50 (Wm1366 [4]): 661 nM | IC50 (Hs294T [5]): 212 nM | IC50 (CHL-1 [6]): 2410 nM | Cell cycle effect (A375 [7]): arrested in the G1 phase | Cell cycle effect (CHL-1 [8]): arrested in the G1 phase | PARP cleavage (melanoma cell lines): cleavage of PARP | Apoptosis IC50 (HEMn-MP [9]): not achievable | Apoptosis IC50 (HEMn-MP [9]; listed as KPT185): Not achieved | Apoptosis IC50 (HEMn-DP [10]): not achievable | Apoptosis IC50 (HEMn-DP [10]; listed as KPT185): Not achieved | Expression of TP53 protein (A375 [11]; A375 (TP53 WT), 500 nM, nuclear localization at 16 hour): upregulated | CDKN1A expression (A375 [11]; A375, 500 nM): upregulation | HDM2 expression in cytoplasmic and nuclear compartment (A375 [11]; A375, KPT-185 at IC50, 16 hr, no detectable protein at basal level): robust expression of HDM2 | Nuclear accumulation of phosphorylated MAPK (A375 [11]; A375, nuclear fraction, immunoblot): accumulated in the nuclear compartment | TP53 or CDKN1A induction (CHL-1 [12]; CHL-1 (mutated TP53), 500 nM): only limited TP53 or CDKN1A induction | Nuclear accumulation of phosphorylated MAPK (CHL-1 [12]; CHL-1, nuclear fraction, immunoblot): accumulated in the nuclear compartment | IC50 (HEM-l [13]): 4130 nM | IC50 (Wm1366 [14]): 347 nM | IC50 (Hs294T [15]): 48.9 nM | IC50 (FO-1 [16]): 32.1 nM | IC50 (FO-1 [16]; Homo sapiens, 72 h): ~50 nM | IC50 (A375 [17]): 45.9 nM | IC50 (A375 [17]; Homo sapiens, A-375, 72 h): ~50 nM | Growth Inhibition IC50 (HEMn-MP [18]): Not achieved | IC50 (HEMn-MP [18]; [21]): > 10200 nM | Growth Inhibition IC50 (HEMn-DP [19]): Not achieved | IC50 (HEMn-DP [19]; [21]): > 10200 nM | IC50 (CHL-1 [20]): 592 nM
